From patent US9162979B2, “1,5-Diary1-2-alkylpyrrole-3-substituted nitro esters, selective COX-2 inhibitors and nitric oxide donors” (ROTTAPHARM BIOTECH S.R.L., priority 2010, dated 2015)

Tests used:
[1] = system: carrageenan-induced inflammatory state in the rat; experiment: Carrageenan test: nociceptive threshold (weight supported); assay type: in vivo; settings: for Weight supported (g) Before treatment: baseline before treatment
Description: (§1) Male Swiss albino mice (23-25 g) and Wistar rats (150-200 g) were used.
The nociceptive threshold in the rat was determined with an analgesiometer, as described by Leighton et al. (Br. J. Pharmacol., 1988, 93, 553-560), the pressure was measured before the treatment and after 30 and 60 min. To reproduce the inflammatory state in the rat, carrageenan was administered i.p. (0.1 ml, 1%) 4 h before the test.
(§2) The test was performed using 6 animals per group, all the compounds were administered per os, 30 min before the test. The carrageenan is administered 2 h before the test.

[2] = system: rat paw oedema induced by carrageenan; experiment: Volume of oedema test (carrageenan); assay type: in vivo
Description: The rat paw volumes were measured using a pletismometer. Four hours after injecting carrageenan 1.0% (0.1 ml injection), the volume of the right hind-paw was measured and compared with that of controls treated with a saline/carrageenan solution. The rats were administered the test compounds 3.5 hours after the carrageenan. The results are given as paw volume expressed in ml. The results relating to the analgesic and anti-oedemic activity in the carrageenan test for some representative compounds of the invention are shown in Table 11.
as §2

[3] = system: mouse abdominal contraction (writhing) induced by acetic acid; experiment: Abdominal constriction test induced by acetic acid; assay type: in vivo
Description: as §1
The antinociceptive activity was determined by the mouse abdominal contraction test using acetic acid (0.6%), which induces writhing, according to Koster's method (Fed. Proc., 1959, 18, 412-418). The number of stretching movements was counted for 10 minutes, starting 5 minutes after injection of acetic acid. The results relating to analgesic activity in the abdominal constriction test with representative compounds of the invention are shown in Table 10.
The test was carried out using 10 animals in the treated group and 20 in the control group (CMC); all the compounds were administered per os with the exception of the compound of Example 8, which was administered i.p.

COX-2 = COX-2 (Mus musculus (Mouse), UniProt Q05769); experiment: Evaluation of COX-2 activity: PGE2 production in LPS-stimulated J774 cells; assay type: cell-based, murine; settings: J774 cells stimulated 24 hours with LPS 10 μg/mL; PGE2 by radio-immunological assay; read-out: Cyclooxygenase inhibition COX-2 IC50
Description: The murine monocyte/macrophage cell line J774 is grown in Dulbecco's modified Eagle's medium (DMEM), enriched with glutamine (2 mM), HEPES (25 mM), penicillin (100 u/mL), streptomycin (100 μg/mL), 10% of fetal bovine serum (FBS) and 1.2% of sodium pyruvate. […] Just before the experiments, the culture medium is replaced with fresh medium without FBS to avoid interference during the radio-immunological phase and the cells are stimulated as described below.
The supernatants are collected for evaluating, by means of radio-immunological assays, the amount of PGE2 produced.
In each group of experiments, wells were used in triplicate for the different treatment conditions. […] The data were evaluated using the sigmoidal dose-response equation (variable slope) (GraphPad software). IC50 and the 95% precision intervals were calculated with the program GraphPad Instat (GraphPad software).

[4] = system: isolated rings of thoracic aorta; experiment: Evaluation of release of NO: vasorelaxing activity on endothelium-denuded aortic rings contracted with KCl; set-up: species or system rat; key to NO release properties Emax (maximum vasorelaxing effect) / NO release properties pIC50 (vasorelaxing potency): S.E: Scarcely Effective: it is not possible to detect NO release comparable to the other compounds mentioned here; settings: for IC50 / Emax: Rattus norvegicus; for IC50: concentration reducing contractile tone induced by 20 mM KCl by half, read-out: NO release properties pIC50 (vasorelaxing potency) (converted); for Emax: read-out: NO release properties Emax (maximum vasorelaxing effect)
Description: The activity of the compounds was evaluated on isolated rings of thoracic aorta of normotensive male Wistar rats (250-350 g). After light anaesthesia with ether, the rats were sacrificed by cervical dislocation and exsanguination. The aortas were immediately excised, extraneous tissues were removed and the endothelial layer was removed by gently rubbing the surface with a hypodermic needle. Rings of aorta with a width of 5 mm were suspended, with a preload of 2 g, in 20-ml organ baths, containing a solution of “Tyrode” (composition of the saline solution in mM: NaCl 136.8; KCl 2.95; CaCl2 1.80; MgSO4 1.05; NaH2PO4 0.41; NaHCO3 11.9; glucose 5.5), thermostatically controlled at 37° C. and kept in an atmosphere of O2 (95%) and CO2 (5%). […] were recorded by means of an isometric transducer (FTO3 Erba), connected to a microdynamometer (Buxco Electronics).
60 minutes after preparation, removal of the endothelium was confirmed by acetylcholine (ACH) (10 μM) treatment of the vascular rings pre-contracted with KCl (20 mM). Relaxation of less than 10% of the contraction induced by KCl was considered as representative of acceptable removal of the endothelial layer, whereas organs displaying relaxation ≧10% were discarded. 40 minutes after confirmation of complete removal of the endothelium, the aortas were contracted by treatment with a single dose of KCl (20 mM) and after the contraction reached a stable plateau, increasing cumulative concentrations (with progressive increments of 3 times) of the test compounds (1 nM-10 μM) were added. It was found from preliminary experiments that the contraction induced by KCl (20 mM) remained stable in a tonic state for at least 40 minutes. The same experiments were performed in the presence of a well-known inhibitor of guanylate cyclase: ODQ 1 μM, which was incubated in aorta preparations after confirmation of removal of the endothelium.
Analysis of the results. The vasorelaxing activity was evaluated as a percentage (%) relative to the contractile tone induced by 20 mM KCl. The pharmacodynamic efficacy parameter (Emax) corresponds to the maximum vasorelaxing effect induced by the molecule tested, expressed as percentage relative to the contractile tone induced by 20 mM KCl. When the limit concentration of 10 μM (the highest concentration administered) of the test compounds has not reached the maximum effect, the efficacy parameter (Emax) corresponds to the vasorelaxing effect induced by the limit concentration (expressed as percentage relative to the contractile tone induced by 20 mM KCl). The pharmacodynamic parameter of potency of the compounds was expressed as pIC50 calculated as the negative logarithm of the molar concentration of test compound that reduces the contractile tone induced by 20 mM KCl by half. […] The parameters of efficacy and potency were expressed as mean±standard error, for 5-10 experiments. The experimental data were analysed by the program GraphPad Prism 3.0.

[5] = system: MIA-induced osteoarthritis; experiment: Chronic pain from MIA-induced osteoarthritis; assay type: in vivo, rat; settings: 20 mg/kg per os twice daily for 14 days
Description: The compounds are administered per os at a dose of 20 mg/kg twice daily for 14 days. Monosodium iodoacetate (MIA), 2 mg in 25 μL is injected in the left knee of anaesthetized rats, the test is carried out according to the literature. Each experiment represents the mean value for 5 animals.

rat liver homogenate [6] = experiment: Evaluation of release of nitrites in hepatic homogenate; settings: nitrite after 4 hours, 1 mM, 37° C., as percentage of SNP
Description: (§3) By evaluating the time-dependent increase in nitrite concentrations in the liver homogenate, it was possible to extrapolate two descriptive parameters:
(§4) Time (in minutes) required for an amount of nitrite to be released by the test compound equal to half its maximum release.

rat liver homogenate [7] = settings: 1 mM
Description: as §3, §4

[8] = relative to contractile tone induced by 20 mM KCl, 1 nM-10 μM

Sequence of COX-2 (Q05769 18-604): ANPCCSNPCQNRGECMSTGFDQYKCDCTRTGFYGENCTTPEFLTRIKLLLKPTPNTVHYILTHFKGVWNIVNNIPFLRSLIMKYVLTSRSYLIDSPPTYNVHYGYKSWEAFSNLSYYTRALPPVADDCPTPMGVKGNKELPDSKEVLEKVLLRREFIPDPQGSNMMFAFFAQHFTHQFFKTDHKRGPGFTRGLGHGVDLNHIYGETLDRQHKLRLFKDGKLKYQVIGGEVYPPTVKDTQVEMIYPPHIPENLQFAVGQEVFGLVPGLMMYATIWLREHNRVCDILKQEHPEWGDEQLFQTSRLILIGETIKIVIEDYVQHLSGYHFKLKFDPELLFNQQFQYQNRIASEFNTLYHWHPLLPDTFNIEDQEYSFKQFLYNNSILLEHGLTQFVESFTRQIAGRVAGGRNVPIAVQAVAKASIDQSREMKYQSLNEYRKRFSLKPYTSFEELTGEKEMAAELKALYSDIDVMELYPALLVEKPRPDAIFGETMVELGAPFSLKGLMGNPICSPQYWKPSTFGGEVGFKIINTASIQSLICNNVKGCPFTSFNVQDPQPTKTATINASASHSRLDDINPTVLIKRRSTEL

For `Cc1c(CC(=O)OCCO[N+](=O)[O-])cc(-c2ccc(S(C)(=O)=O)cc2)n1-c1cccc(F)c1` [Example 3, 2-(Nitrooxy)ethyl-2-[(1-(3-fluorophenyl)-2-methyl-5-(4-methylsulphonylphenyl)-1H-pyrrol-3-yl)]acetate], the “Weight supported (g) After treatment 30 min” value ([1]; 40 mg/kg per os) was 54.1 ± 3.7 g, the “Weight supported (g) After treatment 60 min” value ([1]; 40 mg/kg per os) was 38.7 ± 3.1 g and the “Weight supported (g) Before treatment” value ([1]; 40 mg/kg per os) was 32.6 ± 2.7 g. The “Oedema Volume” value ([2]; 40 mg/kg per os) was 2.17 ± 0.08 mL, the N writhes ([3]; 20 mg/kg per os) was 17.1 ± 2.3 and the N writhes ([3]; 40 mg/kg per os) was 9.4 ± 2.5. It also gave an IC50 (COX-2) of 19 nM, an IC50 [4] of 331 nM and an Emax [4, 8] of 69 ± 4%.
With `Cc1c(CCOCCO)cc(-c2ccc(S(C)(=O)=O)cc2)n1-c1ccc(F)cc1` [Example 37-II] the “Weight supported (g) After treatment 30 min” value ([1]; 20 mg/kg per os) was 46.8 ± 3.7 g, the “Weight supported (g) After treatment 60 min” value ([1]; 20 mg/kg per os) was 38.7 ± 3.3 g and the “Weight supported (g) Before treatment” value ([1]; 20 mg/kg per os) was 32.5 ± 3.4 g. For the same molecule, the “Oedema Volume” value ([2]; 20 mg/kg per os) was 2.08 ± 0.07 mL, the “Weight supported (g) After treatment 30 min” value [5] was 51.2 ± 3.9 g and the “Weight supported (g) After treatment 4 h” value [5] was 50.3 ± 3.8 g. For the same molecule, the “Weight supported (g) After treatment 24 h” value [5] was 48.1 ± 3.3 g, the “Weight supported (g) After treatment 36 h” value [5] was 47.4 ± 3.3 g and the “Weight supported (g) Before treatment” value ([5]; baseline before treatment) was 33.5 ± 2.6 g. For the same molecule, the N writhes ([3]; 40 mg/kg per os) was 18.2 ± 3.1.
In the case of `Cc1c(CCOCCO[N+](=O)[O-])cc(-c2ccc(S(C)(=O)=O)cc2)n1-c1ccc(F)c(F)c1` [Example 39, 2-[2-[2-(1-(3,4-Difluorophenyl)-2-methyl-5-(4-methylsulphonylphenyl)-1H-pyrrol-3-yl]ethoxy]ethyl Nitrate], the “Maximum release (%)” value (rat liver homogenate [6]) is reported as 30 ± 1%, the “T ½” value (rat liver homogenate [7]) is reported as 68.2 ± 8.5 min and the N writhes ([3]; 20 mg/kg per os) is reported as 26.3 ± 3.4. For the same molecule, the IC50 (COX-2) was 920 nM and the Emax [4, 8] was 43 ± 6%.
For `Cc1c(CCOCCCO[N+](=O)[O-])cc(-c2ccc(S(C)(=O)=O)cc2)n1-c1cccc(F)c1` [Example 42, 3-[2-(1-(3-Fluorophenyl)-2-methyl-5-(4-methylsulphonylphenyl)-1H-pyrrol-3-yl)ethoxy]propyl Nitrate], the “Maximum release (%)” value (rat liver homogenate [6]) was 52 ± 8%, the “T ½” value (rat liver homogenate [7]) was 84.4 ± 11.9 min and the IC50 (COX-2) was 430 nM. The “NO release properties Emax (maximum vasorelaxing effect)” value [4, 8] was “S.E”.
Work on `Cc1c(C(N)C(=O)OCCCCO[N+](=O)[O-])cc(-c2ccc(S(C)(=O)=O)cc2)n1-c1ccc(F)cc1` (racemic) [Example 20, (R,S)-4-(Nitrooxy)butyl-[2-amino-2-[1-(4-fluorophenyl)-2-methyl-5-(4-methylsulphonylphenyl)-1H-pyrrol-3-yl]]-acetate] yielded a melting point of 108 °C, a N writhes ([3]; 40 mg/kg per os) of 19.8 ± 2.4 and an IC50 (COX-2) of 1000 nM. The “vasorelaxing effect in the presence of ODQ” value ([4]; ODQ 1 μM, guanylate cyclase inhibitor) was “not fully antagonized by ODQ”, the IC50 [4] was 1550 nM and the Emax [4, 8] was 93 ± 1%.
With `Cc1c(CC(=O)OCCCCO[N+](=O)[O-])cc(-c2ccc(S(C)(=O)=O)cc2)n1-c1cccc(F)c1` [Example 12, 4-(Nitrooxy)butyl-2-[1-(3-fluorophenyl)-2-methyl-5-(4-methylsulphonylphenyl)-1H-pyrrol-3-yl]acetate] the melting point was 114 °C, the N writhes ([3]; 40 mg/kg per os) was 25.1 ± 2.3 and the IC50 (COX-2) was 69 nM. For the same molecule, the IC50 [4] was 3980 nM and the Emax [4, 8] was 57 ± 14%.
In the case of `Cc1c(CC(=O)OCCO[N+](=O)[O-])cc(-c2ccc(S(C)(=O)=O)cc2)n1-c1ccc(F)cc1` [Example 2, 2-(Nitrooxy)ethyl-2-[(1-(4-fluorophenyl)-2-methyl-5-(4-(methylsulphonyl)phenyl)-1H-pyrrol-3-yl)]acetate], the “Maximum release (%)” value (rat liver homogenate [6]) is reported as 26 ± 7%, the “T ½” value (rat liver homogenate [7]) is reported as 68.7 ± 12.5 min and the IC50 [4] is reported as 3470 nM. The Emax [4, 8] was 58 ± 5%.
With `Cc1ccc(-c2cc(C(F)(F)F)nn2-c2ccc(S(N)(=O)=O)cc2)cc1` [Celecoxib, reference compound] the “Weight supported (g) After treatment 30 min” value ([1]; 10 mg/kg per os) was 52.9 ± 3.1 g, the “Weight supported (g) After treatment 60 min” value ([1]; 10 mg/kg per os) was 48.3 ± 3.4 g and the “Weight supported (g) Before treatment” value ([1]; 10 mg/kg per os) was 30.9 ± 2.6 g. For the same molecule, the “Oedema Volume” value ([2]; 10 mg/kg per os) was 1.91 ± 0.04 mL.
For `COc1ccc(-n2c(-c3ccc(S(C)(=O)=O)cc3)cc(CC(=O)OCCO[N+](=O)[O-])c2C)cc1` [Example 4, 2-(Nitrooxy)ethyl-[1-(4-methoxy-phenyl)-2-methyl-5-(4-methylsulphonylphenyl)-1H-pyrrol-3-yl]-acetate], the melting point was 122 °C, the N writhes ([3]; 40 mg/kg per os) was 17.7 ± 2.3 and the IC50 (COX-2) was 170 nM. It also gave an IC50 [4] of 178 nM and an Emax [4, 8] of 77 ± 2%.
In the case of `O=C(NCCO[N+](=O)[O-])c1cccnc1` [Nicorandil, reference compound], the “Maximum release (%)” value (rat liver homogenate [6]) is reported as 18 ± 2%.
In the case of `Cc1c(CCOCCO[N+](=O)[O-])cc(-c2ccc(S(C)(=O)=O)cc2)n1-c1cccc(F)c1` [Example 38, 2-[2-[2-(1-(3-Fluorophenyl)-2-methyl-5-(4-methylsulphonylphenyl)-1H-pyrrol-3-yl]ethoxy]ethyl Nitrate], the “Maximum release (%)” value (rat liver homogenate [6]) is reported as 28 ± 3%, the “T ½” value (rat liver homogenate [7]) is reported as 60.7 ± 8.7 min and the N writhes ([3]; 40 mg/kg per os) is reported as 25.3 ± 3.6. It also gave an IC50 (COX-2) of 28 nM, an IC50 [4] of 4790 nM and an Emax [4, 8] of 60 ± 4%.
